Experimental data as given in US7572793B2, “3-Substituted-4-pyrimidone derivatives” (Mitsubishi Tanabe Pharma Corporation, priority 2001, dated 2009).
pIC50: −log10 of the molar value.

Target: T1, bovine cerebral TPK1 (Bos taurus, UniProt A0A3Q1MT31)
T1 construct: from tissue; host or cells: bovine brain (cerebrum)
Assay: Inhibitory activity against P-GS1 phosphorylation by bovine cerebral TPK1
Assay type: biochemical
Settings: 41.7 μM [γ-32P]ATP, 25° C., 2 hours, pH 6.5
Description: Inhibitory Activity of the Medicament of the Present Invention Against P-GS1 Phosphorylation by Bovine Cerebral TPK1
A mixture containing 100 mM MES-sodium hydroxide (pH 6.5), 1 mM magnesium acetate, 0.5 mM EGTA, 5 mM β-mercaptoethanol, 0.02% Tween 20, 10% glycerol, 12 μg/ml P-GS1, 41.7 μM [y-^32P] ATP (68 kBq/ml), bovine cerebral TPK1 and a compound shown in Table (a final mixture contained 1.7% DMSO deriving from a solution of a test compound prepared in the presence of 10% DMSO) was used as a reaction system. The phosphorylation was started by adding ATP, and the reaction was conducted at 25° C. for 2 hours, and then stopped by adding 21% perchloric acid on ice cooling. The reaction mixture was centrifuged at 12,000 rpm for 5 minutes and adsorbed on P81 paper (Whatmann), and then the paper was washed four times with 75 mM phosphoric acid, three times with water and once with acetone. The paper was dried, and the residual radioactivity was measured using a liquid scintillation counter. […] PHF formation, and that the medicaments of the present invention are effective for preventive and/or therapeutic treatment of Alzheimer disease and the above-mentioned diseases.

T1 sequence (A0A3Q1MT31 1-419): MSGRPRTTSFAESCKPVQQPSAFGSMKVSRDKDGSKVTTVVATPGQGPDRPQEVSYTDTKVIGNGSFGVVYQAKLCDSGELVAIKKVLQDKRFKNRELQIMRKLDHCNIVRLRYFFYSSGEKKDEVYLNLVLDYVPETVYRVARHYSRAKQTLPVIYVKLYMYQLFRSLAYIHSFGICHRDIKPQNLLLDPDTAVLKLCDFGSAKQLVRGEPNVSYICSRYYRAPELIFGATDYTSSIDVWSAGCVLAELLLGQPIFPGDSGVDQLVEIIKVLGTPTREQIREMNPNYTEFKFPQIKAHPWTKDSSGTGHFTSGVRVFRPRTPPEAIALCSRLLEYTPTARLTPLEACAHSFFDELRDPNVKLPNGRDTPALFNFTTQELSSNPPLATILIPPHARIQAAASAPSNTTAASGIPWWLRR

Row | pIC50 | SMILES
1 | 9.11 | COc1cc(N2CCCC2)ccc1C1CN(c2nc(-c3ccncn3)cc(=O)n2C)CCO1 (stereo not drawn) [Compound B260]
2 | 9.57 | Cn1c(N2CCOC(c3c(Cl)cccc3Cl)C2)nc(-c2ccncn2)cc1=O (stereo not drawn) [Compound B105]
3 | 7.59 | Cn1c(N2CCOC3(CCCOc4ccccc43)C2)nc(-c2ccncn2)cc1=O (stereo not drawn) [Compound B285]
